Experimental data taken from US5750558A, “Oxime derivatives of indole and indene compounds as inhibitors of prostaglandin biosynthesis” (Abbott Laboratories, priority 1996, dated 1998).

Assays:
[1] = molecular target: T1, recombinant human PGHS-1 (Homo sapiens, UniProt P23219); assay: Inhibition of prostaglandin biosynthesis in recombinant human PGHS-1 enzyme assay (PGE2 by EIA); assay type: biochemical
T1 construct: made in house; host or cells: baculovirus/Sf9 insect cells (microsomes)
Method: (§1) Inhibition of prostaglandin biosynthesis was evaluated in recombinant human PGHS-1 and PGHS-2 enzyme assays. Representative compounds dissolved in DMSO (3.3% v/v) were preincubated with microsomes from recombinant human PGHS-1 or PGHS-2 expressed in the baculovirus/Sf9 cell system (Gierse, J. K., Hauser, S. D., Creely, D. P., Koboldt, C., Rangwala, S., H., Isakson, P. C., and Seibert, K. Expression and selective inhibition of the constituitive and inducible forms of cyclooxygenase Biochem J. 1995, 305: 479.), together with the cofactors phenol (2 mM) and hematin (1 μM) for 60 minutes prior to the addition of 10 μM arachidonic acid. The reaction was allowed to run for 2.5 minutes at room temperature prior to quenching with HCl and neutralization with NaOH. PGE2 production in the presence and absence of the drug was determined by EIA analysis. The EIA was conducted in 96 well microtiter plates (Nunc Roskilde, Denmark) and optical density measured using a microplate reader (Vmax, Molecular Devices Corp., Menlo Park, Calif.). EIA reagents for prostaglandin determination were purchased from Perseptive Diagnostics, Cambridge, Mass. PGE2 levels were measured against standards prepared in the same milieu. The immunoassays were conducted as recommended by the manufacturer.

[2] = molecular target: T2, recombinant human PGHS-2 (Homo sapiens, UniProt P35354); assay: Inhibition of prostaglandin biosynthesis in recombinant human PGHS-2 enzyme assay (PGE2 by EIA); assay type: biochemical
T2 construct: made in house; host or cells: baculovirus/Sf9 insect cells (microsomes)
T2 sequence (P35354 18-604): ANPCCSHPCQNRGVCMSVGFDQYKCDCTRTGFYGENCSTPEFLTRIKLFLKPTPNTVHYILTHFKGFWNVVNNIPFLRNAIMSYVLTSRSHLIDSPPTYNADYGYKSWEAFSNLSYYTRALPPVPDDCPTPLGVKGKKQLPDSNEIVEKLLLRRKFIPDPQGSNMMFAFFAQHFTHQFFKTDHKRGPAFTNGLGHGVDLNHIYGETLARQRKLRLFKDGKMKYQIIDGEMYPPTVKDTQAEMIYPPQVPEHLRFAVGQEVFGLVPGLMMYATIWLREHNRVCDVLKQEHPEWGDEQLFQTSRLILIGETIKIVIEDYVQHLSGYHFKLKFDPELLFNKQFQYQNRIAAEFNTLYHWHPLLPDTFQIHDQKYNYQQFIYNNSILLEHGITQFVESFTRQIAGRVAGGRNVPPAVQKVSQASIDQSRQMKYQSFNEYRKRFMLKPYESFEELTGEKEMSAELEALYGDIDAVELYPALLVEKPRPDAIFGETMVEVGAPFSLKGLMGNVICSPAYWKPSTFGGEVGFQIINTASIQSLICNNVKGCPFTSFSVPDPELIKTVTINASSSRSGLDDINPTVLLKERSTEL
Method: as §1

[3] = system: PGHS-1; conditions: background statement; cited from earlier work
[4] = system: PGHS-2; conditions: background statement; cited from earlier work

T1 sequence (P23219 24-599): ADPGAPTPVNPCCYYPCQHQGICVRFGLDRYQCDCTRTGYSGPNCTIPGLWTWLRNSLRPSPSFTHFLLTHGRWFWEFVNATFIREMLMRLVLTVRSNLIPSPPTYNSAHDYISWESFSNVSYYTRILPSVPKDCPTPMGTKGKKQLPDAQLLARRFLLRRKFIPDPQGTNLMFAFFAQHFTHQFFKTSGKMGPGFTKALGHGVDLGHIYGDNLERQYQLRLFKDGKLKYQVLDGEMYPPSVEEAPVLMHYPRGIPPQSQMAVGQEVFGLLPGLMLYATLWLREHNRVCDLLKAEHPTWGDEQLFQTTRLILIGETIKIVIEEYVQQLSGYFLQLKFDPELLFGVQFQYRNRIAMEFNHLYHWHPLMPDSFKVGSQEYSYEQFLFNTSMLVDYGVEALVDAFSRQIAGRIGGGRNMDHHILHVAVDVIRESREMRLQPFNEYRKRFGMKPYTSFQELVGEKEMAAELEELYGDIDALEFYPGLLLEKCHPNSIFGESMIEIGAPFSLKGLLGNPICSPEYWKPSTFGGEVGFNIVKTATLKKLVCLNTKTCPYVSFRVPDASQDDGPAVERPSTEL

SMILES	inhibition of PGHS-1 [3]	inhibition of PGHS-2 [4]	also measured
COc1ccc2c(c1)c(CC=NOCC(=O)OCC(O)CO)c(C)n2C(=O)c1ccc(Cl)cc1 (racemic) [Example 3, (4-chlorobenzoyl-5-methoxy-2-methylindol-3-yl) acetaldehyde-.omicron.-4-(2.3-dihydroxypropyloxycarbonylmethyl) oxime]			inhibition at 1 µM ([1]; @ 1 μM, human recombinant PGHS-1, read-out: PGHS-1 % inhibition (printed in PGHS-1 IC50 column)): 41%; inhibition at 0.1 µM ([2]; @ 0.1 μM, human recombinant PGHS-2, read-out: PGHS-2 % inhibition (printed in PGHS-2 IC50 column)): 70%
COc1ccc2c(c1)c(CC=NOCC(=O)O)c(C)n2C(=O)c1ccc(Cl)cc1 [Example 1, (4-chlorobenzoyl-5-methoxy-2-methylindol-3-yl) acetaldehyde-.omicron.-carboxymethyl oxime]			IC50 [2]: 0.73 µM
COc1ccc2c(c1)c(CC=NOCC(=O)OCC1COC(C)(C)O1)c(C)n2C(=O)c1ccc(Cl)cc1 (stereo not shown) [Example 2, (4-chlorobenzoyl-5-methoxy-2-methylindol-3-yl) acetaldehyde-.omicron.-4-(2.2-dimethyldioxanylmethyloxycarbonylmethyl) oxime]			IC50 [1]: 0.09 µM; IC50 [2]: 0.003 µM
COc1ccc2c(c1)c(CC(=O)O)c(C)n2C(=O)c1ccc(Cl)cc1 [Indomethacin]	inhibit both PGHS-1 and PGHS-2	inhibit both PGHS-1 and PGHS-2	
CC(C)Cc1ccc(C(C)C(=O)O)cc1 (stereo not shown) [ibuprofen]	inhibit both isozymes	inhibit both isozymes	
COc1ccc2cc([C@H](C)C(=O)O)ccc2c1 [naproxen]	inhibit both isozymes	inhibit both isozymes	
CC1=C(CC(=O)O)c2cc(F)ccc2/C1=C\c1ccc([S+](C)[O-])cc1 (stereo not shown) [sulindac]	inhibit both PGHS-1 and PGHS-2	inhibit both PGHS-1 and PGHS-2	
